Non-standard residues stand in square brackets, D forms with d. Residues, ends and D or L forms follow the SMILES beside them.
What was measured:
HUVEC = assay: Endothelial tube formation assay; type: cell-based, human; conditions: peptide 10 micrograms per ml, 20 hours
Protocol: The endothelial tube formation assay is based on the ability of endothelial cells to form three-dimensional capillary-like tubular structures when cultured on a gel of basement membrane extract. The endothelial tube formation assay represents a powerful model for studying inhibition and induction of angiogenesis. Pre-labeled HUVEC with Calcein AM were seeded in a 96-well culture plate coated with extracellular metrix (Chemicon international Cat. ECM625) and treated with test peptide—10 micrograms per ml—in full growth medium. […] control was vehicle only. The endothelial cells were allowed to form tubes for 20 hours and were then examined under an inverted fluorescent microscope. Duplicate wells for each treatment were photographed and quantitatively analyzed for an average tubule length using image analysis software ImageProPlus. Raw data were expressed as average tubule lengths in pixels ±standard deviation. Statistic p values were computed using the Student's t-test.

[1] = Cytotoxicity in HCMV assay (CellTiter 96 cell viability); conditions: human, MRC-5 cells (embryonal lung fibroblasts)
Protocol: For cytotoxicity testing, MRC-5 cells were seeded at 2,500 cells/well in 96 well plates using growth medium. […] The following day, peptide was added and tested in duplicates. After a 6 days incubation period, cell viability was measured using CellTiter 96 Solution (Promega). Plates were incubated for additional 4 hours at 37° C. Adhesive plate sealers were used in place of lids, the sealed plates were inverted several times to mix the soluble formazan product and the plate was read spectrophotometrically at 490/560 nm with a Molecular Devices Vmax plate reader.

RAW 264.7 cells = assay: Phagocytosis assay (Fluorescein-labeled Escherichia coli, flow cytometry); type: cell-based, mouse; conditions: peptide 10 micrograms per ml, 30 min preincubation, 60 min ingestion
Protocol: RAW 264.7 (Mouse leukaemic monocyte macrophage cell line) cells were obtained from ATCC and grown in RPMI 1640 medium containing 10% FBS. Cells were incubated in 12×75 mm tubes at 37° C. with test peptide—10 micrograms per ml—for 30 min prior to adding Fluorescein-labeled Escherichia coli bacteria as the agent to be ingested. After the cells were incubated for additional 60 min at 37° C. and allowed to ingest the Fluorescein-labeled Escherichia coli bacteria, cells were fixed with 1% paraformaldehyde. The samples were then analyzed by flow cytometry to determine the amount of phagocytosis as a function of brightness (the greater the phagocytic activity, the more fluorescence in the macrophage population). Data are reported as % positive and the mean fluorescence intensity (MFI) of positively stained cells.

HCMV strain AD169 = assay: HCMV plaque reduction assay in MRC-5 cells; conditions: HCMV in MRC-5 cells; peptide 10 micrograms per ml; 7-10 days
TNF alpha = TNF alpha production assay (LPS-stimulated macrophages, ELISA); type: cell-based, human; conditions: macrophages from PBMC, peptide 10 micrograms per ml, lipopolysaccharide 200 ng/ml, overnight
Protocol: Human Peripheral Blood Mononuclear Cells (PBMC) were obtained from normal human donors. The macrophages were prepared by adherence of PBMC to the plastic wells of the plates. After 8 days in culture in the presence of recombinant human macrophage-colony stimulating factor at 2 ng/ml, differentiated macrophages were preincubated with test peptide—10 micrograms per ml—for 30 min, followed by in-well stimulation by the addition of lipopolysaccharide at a final concentration of 200 ng/ml. Not stimulated macrophages served as negative background control.
After overnight incubation, supernatants from the control and LPS-stimulated cultures were harvested and assayed for TNF alpha production employing a TNF alpha specific ELISA.

[2] = test system: Human Peripheral Blood Mononuclear Cells (PBMC); assay: B cell proliferation assay (SAC plus Interleukin-2, 3H-thymidine); type: cell-based; conditions: peptide 10 micrograms per ml, 3H-thymidine incorporation
Protocol: Human Peripheral Blood Mononuclear Cells (PBMC) were obtained from normal human donors. The B cell proliferation was induced by stimulation of the cells with the B cell mitogen Staphylococcus aureus Cowans I (SAC) plus Interleukin-2, either in the absence (positive proliferation control), or in the presence of test peptide—10 micrograms per ml—to examine their effects on the B cell response. 10^5/well PBMC were plated in 96-well microtiter plates and assayed in duplicate with the peptide. Cell cultures were incubated at 37° C. for 3 days in a 5% CO2 incubator and were thereafter pulsed with 1 microCi/well ^3H-thymidine for additional 12 hours of culture. At the end of incubation time, the plates were harvested and the cells counted by liquid scintillation for the incorporation of ^3H-thymidine as a measure of B cell proliferation.

A549 cells = assay: Propidium iodide cell cycle assay; type: cell-based, human; conditions: peptide 10 micrograms per ml, 24 hours, FACS
Excerpt: Human A549 cells (carcinomic human alveolar basal epithelial cells) were utilized in the experiments employing the Propidium iodide cell cycle assay. The eukaryotic cell cycle is a series of events that take place in a cell leading to its replication. The regulation of the cell cycle involves steps crucial to the cell, including detecting and repairing genetic damage, and provision of various checks to prevent uncontrolled cell division. The molecular events that control the cell cycle are ordered and directional; that is, each process occurs in a sequential fashion. The cell cycle consists of four distinct phases: G1 phase, S phase, G2 phase (collectively known as interphase) and M phase. M phase is itself composed of two tightly coupled processes: mitosis, in which the cell's chromosomes are divided between the two daughter cells, and cytokinesis, in which the cell's cytoplasm divides forming distinct cells. Activation of each phase is dependent on the proper progression and completion of the previous one. Cells that have temporarily or reversibly stopped dividing are said to have entered a state of quiescence called Go phase. The relatively brief M phase consists of nuclear division and cytoplasmic division. The first phase within interphase, from the end of the previous M phase till the beginning of DNA synthesis is called G1 (G indicating gap or growth). During this phase the biosynthetic activities of the cell resume at a high rate. This phase is marked by synthesis of various enzymes that are required in S phase, mainly those needed for DNA replication. The ensuing S phase starts when DNA synthesis commences; when it is complete, all of the chromosomes have been replicated. The cell then enters the G2 phase, which lasts until the cell enters mitosis. Significant protein synthesis occurs during this phase, mainly involving the production of microtubules, which are required during the process of mitosis. […]
Propidium iodide is an intercalating agent and a fluorescent molecule that can be used to stain DNA. […] After incubation for 40 min at 37° C., cells were analyzed in the FACS.

Question: Which “% inhibition of tube formation” value (HUVEC) does the source give for CC(C)C[C@H](NC(=O)[C@H](CC(C)C)NC(=O)[C@@H](Cc1c[nH]c2ccccc12)NC(=O)[C@H](Cc1ccccc1)NC(=O)[C@@H](Cc1c[nH]c2ccccc12)NC(=O)[C@H](CCC(N)=O)NC(=O)[C@H](CCC(N)=O)NC(=O)[C@@H]1CCCN1C(=O)[C@H](CCCCN)NC(=O)[C@@H]1CCCN1C(=O)[C@@H](CCCNC(=N)N)NC(=O)[C@@H]1CCCN1C(=O)CNC(=O)[C@H](CC(C)C)NC(=O)[C@H](CC(C)C)NC(=O)[C@H](Cc1ccc(O)cc1)NC(=O)CNC(=O)[C@H](C)NC(=O)[C@H](CO)NC(=O)[C@H](CC(N)=O)NC(=O)[C@H](CC(C)C)NC(=O)[C@@H](NC(=O)[C@H](Cc1c[nH]c2ccccc12)NC(=O)CN)[C@@H](C)O)C(N)=O [Spantide-I, Gly-Trp-Thr-Leu-Asn-Ser-Ala-Gly-Tyr-Leu-Leu-Gly-Pro-D-Arg-Pro-Lys-Pro-Gln-Gln-D-Trp-Phe-D-Trp-Leu-Leu-NH2] (H-GWTLNSAGYLLGP[dR]PKPQQ[dW]F[dW]LL-NH2) here?
Answer: 1%

Question: What about the viability at 144 h [1] of the same compound?
Answer: 100%

Question: And the “% of control phagocytosis” value (RAW 264.7 cells)?
Answer: 102.9%

Question: And the “% plaque reduction” value (HCMV strain AD169)?
Answer: 0.0%

Question: What about the “% of LPS induction” value (TNF alpha) of the same compound?
Answer: 101.4%

Question: What about the “% of SAC/IL2 induced control” value [2] of the same compound?
Answer: 106.6%

Question: And the “Cell cycle analysis G0/G1” value (A549 cells)?
Answer: 61.6

Question: What about the “Cell cycle analysis G2/M” value (A549 cells) of the same compound?
Answer: 7.7

Question: And the “Cell cycle analysis S” value (A549 cells)?
Answer: 30.7

Source: patent US20100204129A1, “USE OF A PEPTIDE AS A THERAPEUTIC AGENT” (priority 2008, published 2010)
